In the NIST ThermoML archive (doi:10.1021/je0503305):
Values joined by “and” are separate entries in the source; they are usually repeats but may differ in a detail not shown here. Equal values may be shown once. ± gives the expanded uncertainty stated by the source.

Assays:
[1] = Molar enthalpy of transition or fusion; conditions: Crystal; DSC
[2] = Crystal; for vapor or sublimation pressure: Calculated from knudsen effusion weight loss; for Normal melting temperature: DTA

COC(=O)c1cccc(C(=O)O)c1 [1,3-benzenedicarboxylic acid, monomethyl ester]
Molar enthalpy of transition or fusion [1]: 8.72 ± 0.189 kcal/mol | vapor or sublimation pressure ([2]; 359.26 K): 0.000134 ± 2.1e-05 kPa and 0.000136 ± 2.1e-05 kPa | vapor or sublimation pressure ([2]; 361.24 K): 0.000172 ± 2.1e-05 kPa and 0.000169 ± 2.1e-05 kPa | vapor or sublimation pressure ([2]; 363.28 K): 0.000211 ± 2.1e-05 kPa and 0.00021 ± 2.1e-05 kPa and 0.000202 ± 2.1e-05 kPa | vapor or sublimation pressure ([2]; 365.26 K): 0.000256 ± 2.2e-05 kPa and 0.000252 ± 2.2e-05 kPa and 0.000264 ± 2.2e-05 kPa | vapor or sublimation pressure ([2]; 367.13 K): 0.000313 ± 2.3e-05 kPa and 0.000311 ± 2.3e-05 kPa | vapor or sublimation pressure ([2]; 369.28 K): 0.000397 ± 2.4e-05 kPa and 0.000399 ± 2.4e-05 kPa and 0.000382 ± 2.4e-05 kPa | vapor or sublimation pressure ([2]; 371.24 K): 0.000499 ± 2.7e-05 kPa and 0.000487 ± 2.6e-05 kPa and 0.000474 ± 2.6e-05 kPa | vapor or sublimation pressure ([2]; 373.12 K): 0.000588 ± 2.9e-05 kPa and 0.000586 ± 2.9e-05 kPa and 0.000569 ± 2.8e-05 kPa | vapor or sublimation pressure ([2]; 375.27 K): 0.000773 ± 3.4e-05 kPa and 0.000759 ± 3.3e-05 kPa and 0.000741 ± 3.3e-05 kPa | vapor or sublimation pressure ([2]; 377.24 K): 0.000953 ± 3.9e-05 kPa and 0.000928 ± 3.8e-05 kPa and 0.000917 ± 3.8e-05 kPa | vapor or sublimation pressure ([2]; 379.12 K): 0.001122 ± 8.9e-05 kPa and 0.001111 ± 8.8e-05 kPa | Normal melting temperature [2]: 193.53 ± 0.39 °C

COC(=O)c1ccc(C(=O)O)cc1 [1,4-benzenedicarboxylic acid, monomethyl ester]
Molar enthalpy of transition or fusion [1]: 9.01 ± 0.215 kcal/mol | vapor or sublimation pressure ([2]; 363.16 K): 0.000139 ± 2.1e-05 kPa and 0.00014 ± 2.1e-05 kPa | vapor or sublimation pressure ([2]; 365.15 K): 0.000169 ± 2.1e-05 kPa and 0.000171 ± 2.1e-05 kPa and 0.000167 ± 2.1e-05 kPa | vapor or sublimation pressure ([2]; 367.19 K): 0.000212 ± 2.1e-05 kPa and 0.000209 ± 2.1e-05 kPa | vapor or sublimation pressure ([2]; 370.18 K): 0.000289 ± 2.2e-05 kPa and 0.000294 ± 2.3e-05 kPa and 0.000286 ± 2.2e-05 kPa | vapor or sublimation pressure ([2]; 372.17 K): 0.000361 ± 2.4e-05 kPa and 0.000363 ± 2.4e-05 kPa and 0.000354 ± 2.4e-05 kPa | vapor or sublimation pressure ([2]; 374.2 K): 0.000452 ± 2.6e-05 kPa and 0.000449 ± 2.6e-05 kPa and 0.000439 ± 2.5e-05 kPa | vapor or sublimation pressure ([2]; 377.37 K): 0.00063 ± 3e-05 kPa and 0.000621 ± 3e-05 kPa and 0.00062 ± 3e-05 kPa | vapor or sublimation pressure ([2]; 379.26 K): 0.000768 ± 3.4e-05 kPa and 0.000743 ± 3.3e-05 kPa and 0.000739 ± 3.3e-05 kPa | vapor or sublimation pressure ([2]; 381.51 K): 0.00094 ± 3.9e-05 kPa and 0.000931 ± 3.9e-05 kPa and 0.000926 ± 3.8e-05 kPa | Normal melting temperature [2]: 219.39 ± 0.39 °C

COC(=O)c1ccccc1C(=O)O [phthalic acid, monomethyl ester]
Molar enthalpy of transition or fusion [1]: 5.17 ± 0.263 kcal/mol | vapor or sublimation pressure ([2]; 335.28 K): 0.000112 ± 2e-05 kPa and 0.000118 ± 2e-05 kPa and 0.000115 ± 2e-05 kPa | vapor or sublimation pressure ([2]; 337.26 K): 0.000154 ± 2.1e-05 kPa and 0.000148 ± 2.1e-05 kPa and 0.000149 ± 2.1e-05 kPa | vapor or sublimation pressure ([2]; 339.2 K): 0.000184 ± 2.1e-05 kPa and 0.000187 ± 2.1e-05 kPa and 0.00019 ± 2.1e-05 kPa | vapor or sublimation pressure ([2]; 341.24 K): 0.000239 ± 2.2e-05 kPa and 0.000243 ± 2.2e-05 kPa | vapor or sublimation pressure ([2]; 343.11 K): 0.000298 ± 2.3e-05 kPa and 0.000306 ± 2.3e-05 kPa and 0.000301 ± 2.3e-05 kPa | vapor or sublimation pressure ([2]; 345.27 K): 0.000388 ± 2.4e-05 kPa and 0.000386 ± 2.4e-05 kPa | vapor or sublimation pressure ([2]; 347.24 K): 0.000471 ± 2.6e-05 kPa and 0.00048 ± 2.6e-05 kPa and 0.000468 ± 2.6e-05 kPa | vapor or sublimation pressure ([2]; 349.12 K): 0.000579 ± 2.9e-05 kPa and 0.000575 ± 2.9e-05 kPa and 0.000593 ± 2.9e-05 kPa | vapor or sublimation pressure ([2]; 351.06 K): 0.000743 ± 3.3e-05 kPa and 0.000733 ± 3.3e-05 kPa and 0.000751 ± 3.3e-05 kPa | vapor or sublimation pressure ([2]; 353.23 K): 0.000981 ± 4e-05 kPa and 0.000964 ± 4e-05 kPa and 0.000948 ± 3.9e-05 kPa | vapor or sublimation pressure ([2]; 355.28 K): 0.001233 ± 0.0001 kPa and 0.001242 ± 0.0001 kPa | Normal melting temperature [2]: 84.4 ± 0.48 °C
